Reference: paper PMC13376213, “Systematic discovery of motif-based interactions of the auxiliary domains of USP family deubiquitinases” (Nature Communications, 2026)
pKd: −log10 of the molar value. Read-outs that look alike come from different tables or passages of the source.

What was measured:
USP33 DUSP2 domain [1] = target: T1, USP33 DUSP2 domain (Homo sapiens, UniProt Q8TEY7); assay: FP-monitored affinity measurements, USP33 DUSP2; assay type: binding; details: competitive FP: unlabeled peptide (N-acetylated, C-amidated) against protein with 10 nM FITC-labeled peptide; 50 mM phosphate pH 7.4, room temperature; technical triplicate; read-out: KD, USP33 DUSP2
T1 construct: USP33_DUSP2; Q8TEY7; DUSP2; 806; 921; 6xHis-GST (N, cleaved yes); made in house; host or cells: Escherichia coli BL21-Gold (DE3)
T1 sequence (Q8TEY7 with tags, fused parts or gaps): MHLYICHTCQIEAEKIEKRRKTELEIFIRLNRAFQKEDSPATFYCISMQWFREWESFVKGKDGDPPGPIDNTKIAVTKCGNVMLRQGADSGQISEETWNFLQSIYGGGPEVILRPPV
Experimental: (§1) Proteins were expressed in Escherichia coli (E.coli) BL21-Gold (DE3) bacteria. The cDNAs encoding N-terminal 6-histidine-glutathione S-transferase tagged (6xHis-GST), 6xHis-tagged or GST-tagged protein domains in pETM33, pETM11, pGEX6P1 expression vectors respectively, were obtained from Genescript or kindly provided by MRC-PPU (Suppl. Data 1) The bacteria were transformed with the plasmid and grew at 37 °C in 2YT (5 g/L NaCl, 16 g/L tryptone and 10 g/L yeast extract) supplemented with Kanamycin (30 μg/mL) until reaching an OD600 of 0.7. Protein expression was induced with 0.3 mM isopropyl β-D-1 thiogalactopyranoside (IPTG) for 18 h at 18 °C while shaking. For zinc-finger domains, 50 μM of ZnSO4 was added during expression. The bacterial cultures were pelleted for 15 minutes at 4000 x g at 4 °C and stored at −20 °C until purification. The pellets were resuspended in lysis buffer (1× phosphate-buffered saline (PBS), 0.5 % Triton-X, 5 mM MgCl2, 10 μg/mL lysozyme, cOmplete^TM EDTA-free protease inhibitor cocktail (Roche), 10 μg/mL DNAseI) and incubated for 1 h shaking at 4 °C. […] The supernatant was incubated with glutathione (GSH) Sepharose (Cytiva) or Ni2+ Sepharose (Cytiva) for 1 h at 4 °C while shaking. The beads with the bound protein were washed with 1x PBS and eluted with 10 mM reduced glutathione in 50 mM Tris pH 8.0. For fluorescence polarization experiments, the proteins were not eluted from the beads, and the 6xHis-GST tag was cleaved overnight on GSH Sepharose beads at 4 °C while shaking with PreScission Protease in cleavage buffer (50 mM Tris pH 7.5, 150 mM NaCl, 1 mM DTT). The sample containing the cleaved domain was separated from the tag and protease and buffer-exchanged to 50 mM sodium phosphate buffer pH 7.4 with 1 mM DTT using a PD-10 desalting column (Cytiva). The purity and size of the proteins were analyzed by SDS-PAGE electrophoresis.
(§2) The measurements were performed at room temperature in a non-binding black half area 96-well plate (Corning) with a total volume of 50 μL per well. Peptides were obtained from GeneCust (France) with >95% purity. FITC-labeled peptides (N-terminally FITC-labeled without spacer and C-terminally amidated) were dissolved in dimethyl sulfoxide (DMSO), and unlabeled peptides (N-terminally acetylated and C-terminally amidated) were dissolved in 50 mM phosphate buffer pH 7.4. Saturation measurements were performed using a serial dilution of the protein domains in phosphate buffer (25 μL) and the addition of 10 nM FITC-labeled peptide (in phosphate buffer supplemented with 2 mM DTT) (25 μL). […] All measurements were performed in three technical replicates. The data were analyzed using GraphPad Prism version 9.2.0 for MacOS (GraphPad Software, San Diego, California USA, www.graphpad.com). The saturation curves were fitted to the quadratic equation, and the displacement curves were fitted to a sigmoidal dose-response equation as described previously.

USP20 DUSP2 domain [2] = target: T2, USP20 DUSP2 domain (Homo sapiens, UniProt Q9Y2K6); assay: FP-monitored affinity measurements, USP20 DUSP2; assay type: binding
T2 construct: USP20_DUSP2; Q9Y2K6; DUSP2; 776; 894; 6xHis-GST (N, cleaved yes); made in house; host or cells: Escherichia coli BL21-Gold (DE3)
T2 sequence (Q9Y2K6 with tags, fused parts or gaps): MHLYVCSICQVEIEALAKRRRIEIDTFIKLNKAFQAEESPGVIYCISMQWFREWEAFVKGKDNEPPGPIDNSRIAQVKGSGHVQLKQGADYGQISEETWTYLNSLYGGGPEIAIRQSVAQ
Experimental: as §1, §2

USP20 DUSP2 domain [3] = target: T2, USP20 DUSP2 domain; assay: Peptide SPOT array, USP20 DUSP2; assay type: binding; details: for Average: peptide SPOT array intensity minus background, mean of 2 replicas; for Average / Normalize to peptide with higher intensity %: sheet S5A; for Normalize to higher intensity (%) / Normalize to peptide with higher intensity %: peptide SPOT array; for Normalize to higher intensity (%): USP20 DUSP2, average normalised to the highest intensity (ARNTL2 = 100); for Normalize to peptide with higher intensity %: average normalized to the peptide with highest intensity (ARNTL2 = 100);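 on all read-outs here: GST-tagged domain probed overnight at 4 °C on peptides made on cellulose membranes, bound protein detected via HRP-coupled anti-GST antibody, spot intensity from image analysis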
Experimental: (§3) Peptides were synthesized on cellulose membranes with standard Fluoroenylmethylox-ycarbonyl (Fmoc) chemistry using a Multipep automated synthesizer at INTAVIS (Tübingen, Germany) or ordered from JPT (PepSpots). The membranes were activated with methanol for 5 min and washed three times for 5 min with TBST (50 mM Tris, 137 mM NaCl, 2.7 mM KCl, pH 8.0, 0.05% Tween-20). The membranes were incubated with blocking buffer (5% skim milk powder in TBST) for 2 h at room temperature while shaking. The membranes were incubated with the GST-tagged protein diluted at the desired concentration in blocking buffer and incubated overnight at 4 °C while shaking. The membrane was rinsed 3 times with TBST and incubated with HRP-conjugated anti-GST antibody (Cytiva, RPN1236; 1:3000 dilution) in blocking buffer for 1 h at 4 °C while shaking. […] The images were analyzed in Fiji (ImageJ2 version 2.9.0).

USP33 DUSP2 domain [4] = target: T1, USP33 DUSP2 domain; assay: Peptide SPOT array, USP33 DUSP2; assay type: binding; details: average normalised to the highest intensity (CCDC88B = 100)
Experimental: as §3

[5] = tested on: USP auxiliary domains and full-length CYLD and USP7 (baits); assay: ProP-PD selections against the HD2 library; assay type: binding, human; details: bait CYLD_CAP-Gly-2 (Q9NQC7 235-307); ProP-PD peptide level
Experimental: We generated a collection of 29 USP ADs and two full-length USPs (CYLD and USP7). The collection was biased towards domains that are present in several USPs, such as zf-UBP domains, UBL domains and DUSP domains (Suppl. Data 1). We also included ADs only found in specific USPs, such as the three CAP-Gly domains of CYLD and the C-terminal domain of USP25. […] The peptide-coding regions of the phage pools were analyzed by next-generation sequencing (NGS), mapped to the corresponding proteins, and filtered for high/medium confidence ligands based on established criteria (with confidence level 4 being the highest).
as §1
The human disorderome library was used for four rounds of phage display selections. GST-tagged, 6xHis-tagged or GST-6xHis purified proteins were used as baits and GST was used as control by immobilization on a 96-well MaxiSorp plate (Nunc) overnight at 4 °C while shaking (10 μg of protein in 100 μL PBS). The wells containing the immobilized proteins were blocked with 0.5% BSA in PBS for 1 hour at 4 °C while shaking. The phage library was prepared by precipitation in 1/5th volume PEG/NaCl (20% PEG-8000 + 0.4 M NaCl), incubated for 10 min on ice, followed by centrifugation at 10,000 × g for 10 min at 4 °C and resuspended in PBS. The GST-coated wells were washed four times with 0.05% Tween 20 in PBS, and 100 μL/well phage library was added and incubated 1 h at 4 °C while shaking. The protein-coated wells were washed four times with 0.05% Tween 20 in PBS, and the phage solution from the GST-coated wells was transferred to the protein-coated wells and incubated 2 h at 4 °C while shaking. The unbound phages were removed by washing 5 times with 0.05% Tween 20 in PBS, and the bound phages were eluted with 100 μL/well log-phase E.coli OmniMAX by incubating for 30 min at 37 °C while shaking. M13KO7 helper phages (10^11 PFU/mL) were added to each well and incubated for 45 min at 37 °C while shaking. […]

| Average (USP20 DUSP2 domain [3]) | Normalize to higher intensity (%) (USP20 DUSP2 domain [3]) | Normalize to peptide with higher intensity % (USP20 DUSP2 domain [3]) [%] | Normalize to higher intensity (%) (USP33 DUSP2 domain [4]) | Molecule | also measured |
| --- | --- | --- | --- | --- | --- |
| -16.4483 | -9.211 | -9.211 | 68.6966 | EAGLALRTDLQGEAQI [ZNF783] | – |
| 27.0767 | 15.16 | 15.1621 | 19.7113 | GGLTDLSSLIQAGQQF [SGTB] | – |
| 72.2767 | 40.47 | 40.4726 | 49.982 | KGHSRDFVLRRDLSAT [ZIC5] | – |

Second part, the molecule before the results:

| Molecule | Average (USP20 DUSP2 domain [3]) | Normalize to higher intensity (%) (USP20 DUSP2 domain [3]) | Normalize to peptide with higher intensity % (USP20 DUSP2 domain [3]) [%] | Normalize to higher intensity (%) (USP33 DUSP2 domain [4]) | also measured |
| --- | --- | --- | --- | --- | --- |
| CC[C@H](C)[C@H](NC(=O)[C@H](Cc1ccc(O)cc1)NC(=O)[C@@H]1CCCN1)C(=O)N1CCC[C@H]1C(=O)N[C@@H](CCSC)C(=O)N[C@@H](CC(=O)O)C(=O)N[C@@H](CC(=O)O)C(=O)N[C@@H](CC(=O)O)C(=O)N[C@@H](C)C(=O)N[C@@H](CCC(N)=O)C(=O)N[C@@H](CC(C)C)C(=O)N[C@@H](CCCNC(=N)N)C(=O)N[C@@H](CO)C(=O)N[C@@H](Cc1ccccc1)C(=O)N[C@@H](CC(=O)O)C(=O)N[C@@H](CCC(N)=O)C(=O)N[C@@H](CC(C)C)C(=O)N[C@@H](CO)C(=O)O [F572A] | – | – | – | – | pKd (USP33 DUSP2 domain [1]): < 3.05; pKd (USP20 DUSP2 domain [2]; competitive FP: unlabeled peptide (N-acetylated, C-amidated) against protein with 10 nM FITC-labeled peptide, 50 mM phosphate pH 7.4, room temperature, technical triplicate, read-out: KD, USP20 DUSP2): < 3.22 |
| CC[C@H](C)[C@H](NC(=O)[C@H](Cc1ccc(O)cc1)NC(=O)[C@@H]1C[C@@H](O)CN1C(C)=O)C(=O)N1CCC[C@H]1C(=O)N[C@@H](CCSC)C(=O)N[C@@H](CC(=O)O)C(=O)N[C@@H](CC(=O)O)C(=O)N[C@@H](CC(=O)O)C(=O)N[C@@H](Cc1ccccc1)C(=O)N[C@@H](CCC(N)=O)C(=O)N[C@@H](CC(C)C)C(=O)N[C@@H](CCCNC(=N)N)C(=O)N[C@@H](CO)C(=O)N[C@@H](Cc1ccccc1)C(=O)N[C@@H](CC(=O)O)C(=O)N[C@@H](CCC(N)=O)C(=O)N[C@@H](CC(C)C)C(=O)N[C@@H](CO)C(N)=O [HyPro-HIF1A564-581] | – | – | – | – | pKd (USP33 DUSP2 domain [1]): 5.15 |
| ATLATAWSLVEAAGLD [BAHCC1_2] | -15.5033 | -8.681 | -8.681 | -24.9243 | – |
| Ac-PYIPMDKDFQLRSFDQLS-NH2 [D570K] | – | – | – | – | pKd (USP33 DUSP2 domain [1]): 5.00 |
| Ac-PYIPMDKDFQLRSFDQLS-NH2 [HIF1A_D570K] | – | – | – | – | pKd (USP20 DUSP2 domain [2]; USP20_DUSP2, FP displacement by unlabelled peptide, read-out: KD): 4.73 |
| DLLSVAEMVALVEQRA [FBXO46_168-183] | – | – | – | – | mean_counts_% [5]: 16.99%; specificity [5]: 1.00 |
| EEDVLAFNLQHLATLA [BAHCC1_1] | -22.4783 | -12.59 | -12.5871 | 29.5039 | – |
| EGTEVAFPLLVSHRSQ [EMSY] | -0.4433 | -0.2483 | -0.2483 | 1.956 | – |
| EKEDSCFELLHRAVGH [ASB8] | -31.4033 | -17.58 | -17.5849 | 10.516 | – |
| KEQLSSFDISPREKLI [ARNTL2] | 178.582 | 100 | 100 | 36.7483 | – |
